Experimental data from ChEMBL document CHEMBL1201862, “PubChem BioAssay data set” (2004).
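Following 48 hours of exposure in 96-well plates, responses at five concentrations were used to interpolate endpoints linearly. GI50 marks 50% less growth.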 The source made the active and inactive calls. Cut-off read from the data, not from the text of the source: active = GI50 up to about 1.1 µM and inactive = higher.

What was measured:
Assay in all cases: inhibition of tumour cell growth, NCI panel, 48 h
[1] = system: 786-0
[2] = system: A498
[3] = system: A549
[4] = system: ACHN
[5] = system: CAKI-1
[6] = system: CCRF-CEM
[7] = system: COLO 205
[8] = system: DLD-1
[9] = system: DMS-114
[10] = system: DMS-273
[11] = system: EKVX
[12] = system: HCT-116
[13] = system: HCT-15
[14] = system: HL-60
[15] = system: HOP-18
[16] = system: HOP-62
[17] = system: HOP-92
[18] = system: HT-29
[19] = system: IGROV-1
[20] = system: K562
[21] = system: KM12
[22] = system: LOX IMVI
[23] = system: LXFL 529
[24] = system: M14
[25] = system: M19-MEL
[26] = system: MOLT-4
[27] = system: Malme-3M
[28] = system: NCI-H23
[29] = system: NCI-H460
[30] = system: NCI-H522
[31] = system: OVCAR-3
[32] = system: OVCAR-4
[33] = system: OVCAR-5
[34] = system: OVCAR-8
[35] = system: RPMI-8226
[36] = system: RXF 393
[37] = system: SF-268
[38] = system: SF-295
[39] = system: SF-539
[40] = system: SK-MEL-28
[41] = system: SK-MEL-2
[42] = system: SK-MEL-5
[43] = system: SK-OV-3
[44] = system: SN12C
[45] = system: SNB-19
[46] = system: SNB-75
[47] = system: SNB-78
[48] = system: SW-620
[49] = system: TK-10
[50] = system: U-251
[51] = system: UACC-257
[52] = system: UACC-62
[53] = system: UO-31
[54] = system: XF498
[55] = system: HCC 2998
[56] = system: KM-20L2
[57] = system: NCI-H226
[58] = system: SR

Q: With `CN(/N=C\c1ccnc2ccccc12)c1ccccc1` as the molecule, how does the GI50 [1] read?
A: The GI50 was 18.5 µM (inactive).

Q: What about the GI50 [2] of the same molecule?
A: Its GI50 is 21 µM (inactive).

Q: And the GI50 [3]?
A: The GI50 was 21.6 µM (inactive).

Q: What about the GI50 [4] of the same molecule?
A: The GI50 was 31 µM (inactive).

Q: And the GI50 [5]?
A: The GI50 was 31.5 µM (inactive).

Q: What about the GI50 [6] of the same molecule?
A: Its GI50 is 10 µM (inactive).

Q: And the GI50 [7]?
A: The GI50 was 20.3 µM (inactive).

Q: And the GI50 [8]?
A: The GI50 was 21.5 µM (inactive).

Q: And the GI50 [9]?
A: Its GI50 is 22.7 µM (inactive).

Q: And the GI50 [10]?
A: Its GI50 is 20 µM (inactive).

Q: What about the GI50 [11] of the same molecule?
A: The GI50 was 9.12 µM (inactive).

Q: And the GI50 [12]?
A: Its GI50 is 17.6 µM (inactive).

Q: And the GI50 [13]?
A: The GI50 was 17.1 µM.

Q: What about the GI50 [14] of the same molecule?
A: The GI50 was 17.5 µM (inactive).

Q: And the GI50 [15]?
A: Its GI50 is 79.1 µM (inactive).

Q: What about the GI50 [16] of the same molecule?
A: The GI50 was 28.1 µM (inactive).

Q: What about the GI50 [17] of the same molecule?
A: The GI50 was 25.4 µM (inactive).

Q: And the GI50 [18]?
A: Its GI50 is 18.9 µM (inactive).

Q: What about the GI50 [19] of the same molecule?
A: Its GI50 is 45.5 µM (inactive).

Q: And the GI50 [20]?
A: Its GI50 is 20.6 µM (inactive).

Q: And the GI50 [21]?
A: Its GI50 is 19 µM (inactive).

Q: And the GI50 [22]?
A: Its GI50 is 17.2 µM (inactive).

Q: What about the GI50 [23] of the same molecule?
A: Its GI50 is 26.1 µM (inactive).

Q: What about the GI50 [24] of the same molecule?
A: The GI50 was 18.9 µM (inactive).

Q: What about the GI50 [25] of the same molecule?
A: Its GI50 is 26.1 µM (inactive).

Q: What about the GI50 [26] of the same molecule?
A: The GI50 was > 100 µM (inactive).

Q: And the GI50 [27]?
A: The GI50 was 23.8 µM (inactive).

Q: And the GI50 [28]?
A: The GI50 was 22.3 µM (inactive).

Q: And the GI50 [29]?
A: Its GI50 is 23.7 µM (inactive).

Q: What about the GI50 [30] of the same molecule?
A: Its GI50 is 17.8 µM (inactive).

Q: What about the GI50 [31] of the same molecule?
A: Its GI50 is 20.2 µM (inactive).

Q: What about the GI50 [32] of the same molecule?
A: The GI50 was 25.4 µM (inactive).

Q: And the GI50 [33]?
A: Its GI50 is 16.8 µM (inactive).

Q: What about the GI50 [34] of the same molecule?
A: The GI50 was 38.3 µM (inactive).

Q: What about the GI50 [35] of the same molecule?
A: Its GI50 is > 100 µM (inactive).

Q: What about the GI50 [36] of the same molecule?
A: The GI50 was 30.2 µM (inactive).

Q: What about the GI50 [37] of the same molecule?
A: The GI50 was 56.1 µM (inactive).

Q: And the GI50 [38]?
A: The GI50 was 25.6 µM (inactive).

Q: And the GI50 [39]?
A: The GI50 was 25.7 µM (inactive).

Q: And the GI50 [40]?
A: The GI50 was 29.8 µM (inactive).

Q: What about the GI50 [41] of the same molecule?
A: The GI50 was 19.5 µM (inactive).

Q: And the GI50 [42]?
A: Its GI50 is 17.3 µM (inactive).

Q: And the GI50 [43]?
A: Its GI50 is 31.2 µM (inactive).

Q: What about the GI50 [44] of the same molecule?
A: The GI50 was 29.9 µM (inactive).

Q: And the GI50 [45]?
A: The GI50 was 29.2 µM (inactive).

Q: And the GI50 [46]?
A: Its GI50 is 32.5 µM (inactive).

Q: What about the GI50 [47] of the same molecule?
A: Its GI50 is 34.4 µM (inactive).

Q: And the GI50 [48]?
A: Its GI50 is 23 µM (inactive).

Q: And the GI50 [49]?
A: The GI50 was 35.3 µM (inactive).

Q: What about the GI50 [50] of the same molecule?
A: Its GI50 is 25.8 µM (inactive).

Q: What about the GI50 [51] of the same molecule?
A: Its GI50 is 20 µM (inactive).

Q: And the GI50 [52]?
A: Its GI50 is 19.5 µM (inactive).

Q: And the GI50 [53]?
A: Its GI50 is 25.1 µM (inactive).

Q: And the GI50 [54]?
A: The GI50 was 29.7 µM (inactive).

Q: How did the GI50 [1] turn out when `CCOC(=O)C1C(c2ccc(Br)cc2)N(Cc2ccccc2)C(c2ccc(Br)cc2)C(C(=O)OC)S1(=O)=O` (configuration not stated) was run?
A: The GI50 was 32.3 µM (inactive).

Q: And the GI50 [3]?
A: The GI50 was 76.9 µM (inactive).

Q: What about the GI50 [4] of the same molecule?
A: The GI50 was 93.5 µM (inactive).

Q: What about the GI50 [5] of the same molecule?
A: Its GI50 is 77.1 µM (inactive).

Q: And the GI50 [6]?
A: The GI50 was 40.4 µM (inactive).

Q: What about the GI50 [7] of the same molecule?
A: The GI50 was > 100 µM (inactive).

Q: What about the GI50 [8] of the same molecule?
A: Its GI50 is > 100 µM (inactive).

Q: And the GI50 [9]?
A: The GI50 was 66.4 µM (inactive).

Q: And the GI50 [10]?
A: The GI50 was 74.1 µM (inactive).

Q: And the GI50 [11]?
A: The GI50 was > 100 µM (inactive).

Q: What about the GI50 [55] of the same molecule?
A: The GI50 was > 100 µM (inactive).

Q: And the GI50 [12]?
A: Its GI50 is 25.2 µM (inactive).

Q: What about the GI50 [13] of the same molecule?
A: Its GI50 is over 100 µM.

Q: And the GI50 [14]?
A: The GI50 was > 100 µM (inactive).

Q: And the GI50 [15]?
A: Its GI50 is 21.9 µM (inactive).

Q: And the GI50 [16]?
A: The GI50 was > 100 µM (inactive).

Q: What about the GI50 [18] of the same molecule?
A: Its GI50 is 66.8 µM (inactive).

Q: And the GI50 [19]?
A: Its GI50 is > 100 µM (inactive).

Q: What about the GI50 [20] of the same molecule?
A: The GI50 was 87.7 µM (inactive).

Q: And the GI50 [56]?
A: The GI50 was > 100 µM (inactive).

Q: And the GI50 [21]?
A: The GI50 was > 100 µM (inactive).

Q: And the GI50 [22]?
A: Its GI50 is > 100 µM (inactive).

Q: What about the GI50 [23] of the same molecule?
A: The GI50 was > 100 µM (inactive).

Q: And the GI50 [24]?
A: The GI50 was 83.4 µM (inactive).

Q: What about the GI50 [25] of the same molecule?
A: Its GI50 is 74.6 µM (inactive).

Q: What about the GI50 [26] of the same molecule?
A: Its GI50 is > 100 µM (inactive).

Q: What about the GI50 [27] of the same molecule?
A: Its GI50 is > 100 µM (inactive).

Q: What about the GI50 [57] of the same molecule?
A: Its GI50 is 46.8 µM (inactive).

Q: And the GI50 [28]?
A: Its GI50 is > 100 µM (inactive).

Q: And the GI50 [29]?
A: The GI50 was > 100 µM (inactive).

Q: And the GI50 [30]?
A: The GI50 was 50.6 µM (inactive).

Q: And the GI50 [31]?
A: The GI50 was > 100 µM (inactive).

Q: What about the GI50 [32] of the same molecule?
A: The GI50 was 29.1 µM (inactive).

Q: And the GI50 [33]?
A: The GI50 was > 100 µM (inactive).

Q: And the GI50 [34]?
A: The GI50 was 24.8 µM (inactive).

Q: And the GI50 [35]?
A: Its GI50 is 32.7 µM (inactive).

Q: And the GI50 [36]?
A: The GI50 was 33.6 µM (inactive).

Q: And the GI50 [37]?
A: The GI50 was 39.6 µM (inactive).

Q: What about the GI50 [38] of the same molecule?
A: Its GI50 is 35.4 µM (inactive).

Q: What about the GI50 [40] of the same molecule?
A: Its GI50 is 53.3 µM (inactive).

Q: What about the GI50 [41] of the same molecule?
A: Its GI50 is > 100 µM (inactive).

Q: And the GI50 [43]?
A: Its GI50 is > 100 µM (inactive).

Q: What about the GI50 [44] of the same molecule?
A: The GI50 was > 100 µM (inactive).

Q: What about the GI50 [45] of the same molecule?
A: The GI50 was 27.5 µM (inactive).

Q: What about the GI50 [46] of the same molecule?
A: The GI50 was 21.3 µM (inactive).

Q: And the GI50 [47]?
A: The GI50 was > 100 µM (inactive).

Q: What about the GI50 [58] of the same molecule?
A: Its GI50 is 34.4 µM (inactive).

Q: And the GI50 [48]?
A: The GI50 was > 100 µM (inactive).

Q: And the GI50 [49]?
A: Its GI50 is > 100 µM (inactive).

Q: What about the GI50 [51] of the same molecule?
A: The GI50 was 24.9 µM (inactive).

Q: And the GI50 [52]?
A: Its GI50 is > 100 µM (inactive).

Q: And the GI50 [53]?
A: The GI50 was 49.7 µM (inactive).

Q: What about the GI50 [54] of the same molecule?
A: The GI50 was > 100 µM (inactive).
